Test results taken from US4423053A, “Derivatives of 2-amino-5-(o-sulphamidophenyl)-1,3,4-thiadiazol as antiviral agents and a process for the preparation thereof” (Societa Italo-Britannica L. Manetti-H. Roberts & Co., priority 1981, dated 1983).
Like-named read-outs stand apart in the source and are kept apart here.

Legend:
[1] = tested on: Herpes simplex virus type 2; test: Antiviral activity in vitro on HSV2 at different doses (Table A); assay type: cell-based
Experimental: (§1) The tests were carried out inoculating virus of various kinds on living cells from different sources, forming the respective culture in tissue culture flasks, according to the method well known to those skilled in the art. The virus forms a plurality growing seats on the bottom of the tissue culture flasks, depending on the virus concentration and the test conditions, said seats being easily identifiable with the naked eye. In such a way it is possible to establish the controls. At the same time in the tissue culture flasks wherein the compound of the invention had been introduced, at various concentrations, an inhibition is observed, as shown by a number of growing seats lower than that of the controls. Said inhibition was calculated in percent as referred in the following tables. Tests have been effected by using virus Herpes simplex, type 2 (HSV2), and virus Coxackie B, type 4 (COXB4).

[2] = tested on: virus Coxackie B, type 4 (COXB4); test: Antiviral activity in vitro on Coxackie B type 4 at different doses (Table B); assay type: cell-based
Experimental: as §1

[3] = tested on: Herpes simplex virus type 2; test: Activity in vitro on HSV2 for different times of administration after infection (Table C); assay type: cell-based
Experimental: as §1, with “In order to ascertain the activity of compound G-413 "in vitro" at a dose of 10 μg on Herpes simplex” for “Tests have been effected by using”, “virus” for “virus Herpes simplex,”, “for different times of administration, a test was effected introducing the compound into the cells after the” for “(HSV2), and”, “infection.” for “Coxackie B, type 4 (COXB4).”

[4] = tested on: Polio 1; assay type: cell-based
[5] = tested on: ECHO 2; test: Inhibition of virion production, ECHO 2 on HEp-2 cells (Table E); assay type: cell-based; conditions: ECHO 2 10^-6; 10^-7; 10^-8, HEp-2
Experimental: (§2) The activity of the compound G-413 was assessed by the test of inhibition of virion production.
(§3) The test was effected with various types of virus, on HEp-2 cells.

[6] = tested on: Coxsackie B4; test: Inhibition of virion production, Coxsackie B4 on HEp-2 cells (Table F); assay type: cell-based
Experimental: as §2, §3

[7] = tested on: HSV2; test: Inhibition of virion production, HSV2 on HEp-2 cells (Table G); assay type: cell-based, Herpes simplex virus type 2
[8] = tested on: Adeno 17; test: Inhibition of virion production, Adeno 17 on HEp-2 cells (Table H); assay type: cell-based
Experimental: as §2, §3

[9] = tested on: HSV2; test: Activity on kidney primary cells of rabbit with respect to HSV2 (Table I)
[10] = tested on: HSV2; test: Activity on kidney secondary cells of rabbit YRK with respect to HSV2 (Table J)
[11] = Table D, Polio 1 10^-6, HEp-2, 20 μg per "Falcon"
[12] = Table D, Polio 1 10^-7, HEp-2, 20 μg per "Falcon"
[13] = Table D, Polio 1 10^-8, HEp-2, 20 μg per "Falcon"

Nc1nnc(-c2ccccc2S(N)(=O)=O)s1 [G-413]
inhibition ([1]; HSV2 10^-3, 2,5 μg): 66,7%
virus growth (HSV2 with G-413) ([1]; HSV2 10^-3, 2,5 μg): 3,5 PFU/ml
inhibition ([1]; HSV2 10^-3, 5,0 μg): 66,7%
virus growth (HSV2 with G-413) ([1]; HSV2 10^-3, 5,0 μg): 3,5 PFU/ml
inhibition ([1]; HSV2 10^-3, 10,0 μg): 81,0%
virus growth (HSV2 with G-413) ([1]; HSV2 10^-3, 10,0 μg): 2,0 PFU/ml
inhibition ([1]; HSV2 10^-3, 20,0 μg): 71,5%
virus growth (HSV2 with G-413) ([1]; HSV2 10^-3, 20,0 μg): 3,0 PFU/ml
inhibition ([1]; HSV2 10^-3, 30,0 μg): 52,4%
virus growth (HSV2 with G-413) ([1]; HSV2 10^-3, 30,0 μg): 5,0 PFU/ml
inhibition ([1]; HSV2 10^-3, 40,0 μg): 52,4%
virus growth (HSV2 with G-413) ([1]; HSV2 10^-3, 40,0 μg): 5,0 PFU/ml
percent inhibition (in words) ([1]; HSV2, dose of 10 μg): very high percent inhibition
inhibition ([2]; COXB4 10^-6, 2,5 μg): 28,8%
virus growth (COXB4 with G-413) ([2]; COXB4 10^-6, 2,5 μg): 23,5 PFU/ml
inhibition ([2]; COXB4 10^-6, 5,0 μg): 89,9%
virus growth (COXB4 with G-413) ([2]; COXB4 10^-6, 5,0 μg): 3,0 PFU/ml
inhibition ([2]; COXB4 10^-6, 10,0 μg): 81,9%
virus growth (COXB4 with G-413) ([2]; COXB4 10^-6, 10,0 μg): 6,5 PFU/ml
inhibition ([2]; COXB4 10^-6, 20,0 μg): 80,4%
virus growth (COXB4 with G-413) ([2]; COXB4 10^-6, 20,0 μg): 6,5 PFU/ml
percent inhibition (in words) ([2]; COXB4, dose of 5 μg): very high percent inhibition
inhibition ([3]; HSV2 10^-2 + 10 μg, no delay): 62,5%
virus growth (HSV2 with G-413) ([3]; HSV2 10^-2 + 10 μg, no delay): 7,5 PFU/ml
inhibition ([3]; HSV2 10^-2, 1 h later + 10 μg): 45,0%
virus growth (HSV2 with G-413) ([3]; HSV2 10^-2, 1 h later + 10 μg): 11,0 PFU/ml
inhibition ([3]; HSV2 10^-2, 2 h later + 10 μg): 60,0%
virus growth (HSV2 with G-413) ([3]; HSV2 10^-2, 2 h later + 10 μg): 8,0 PFU/ml
inhibition ([3]; HSV2 10^-2, 4 h later + 10 μg): 77,0%
virus growth (HSV2 with G-413) ([3]; HSV2 10^-2, 4 h later + 10 μg): 4,5 PFU/ml
inhibition ([3]; HSV2 10^-2, 8 h later + 10 μg): 85,0%
virus growth (HSV2 with G-413) ([3]; HSV2 10^-2, 8 h later + 10 μg): 3,0 PFU/ml
inhibition ([3]; HSV2 10^-2, 20 h later + 10 μg): 42,5%
virus growth (HSV2 with G-413) ([3]; HSV2 10^-2, 20 h later + 10 μg): 11,5 PFU/ml
inhibition of virion production [4, 11]: 91,9%
virion production [4, 11]: 29 PFU
inhibition of virion production [4, 12]: 98,2%
virion production [4, 12]: 5 PFU
inhibition of virion production [4, 13]: 97,7%
virion production [4, 13]: 4 PFU
inhibition of virion production [5]: 100%
inhibition of virion production ([6]; COX B4 10^-4, HEp-2): 72,0%
virion production ([6]; COX B4 10^-4, HEp-2): 14 PFU
inhibition of virion production ([6]; COX B4 10^-5, HEp-2): 83,7%
virion production ([6]; COX B4 10^-5, HEp-2): 7 PFU
inhibition of virion production ([6]; COX B4 10^-6, HEp-2): 85,0%
virion production ([6]; COX B4 10^-6, HEp-2): 6 PFU
inhibition of virion production ([7]; HSV2 10^-1, HEp-2): 75,2%
virion production ([7]; HSV2 10^-1, HEp-2): 8 PFU
inhibition of virion production ([7]; HSV2 10^-2, HEp-2): 75,0%
virion production ([7]; HSV2 10^-2, HEp-2): 5 PFU
inhibition of virion production ([7]; HSV2 10^-3, HEp-2): 62,5%
virion production ([7]; HSV2 10^-3, HEp-2): 3 PFU
inhibition of virion production ([8]; Adeno 17 10^-4, HEp-2): 65,0%
virion production ([8]; Adeno 17 10^-4, HEp-2): 35 PFU
inhibition of virion production ([8]; Adeno 17 10^-5, HEp-2): 67,5%
virion production ([8]; Adeno 17 10^-5, HEp-2): 27 PFU
inhibition of virion production ([8]; Adeno 17 10^-6, HEp-2): 63,4%
virion production ([8]; Adeno 17 10^-6, HEp-2): 22 PFU
inhibition ([9]; HSV2 10^-1, 10 μg): 38,1%
virion production ([9]; HSV2 10^-1, 10 μg): 13 PFU
inhibition ([9]; HSV2 10^-1, 50 μg): 71,5%
virion production ([9]; HSV2 10^-1, 50 μg): 6 PFU
inhibition ([9]; HSV2 10^-2, 10 μg): 23,0%
virion production ([9]; HSV2 10^-2, 10 μg): 7 PFU
inhibition ([9]; HSV2 10^-2, 50 μg): 77,0%
virion production ([9]; HSV2 10^-2, 50 μg): 3 PFU
inhibition ([9]; HSV2 10^-3, 10 μg): 50,0%
virion production ([9]; HSV2 10^-3, 10 μg): 2 PFU
inhibition ([9]; HSV2 10^-3, 50 μg): 75,0%
virion production ([9]; HSV2 10^-3, 50 μg): 1 PFU
inhibition ([10]; HSV2 10^-2, 5 μg): 10%
virion production ([10]; HSV2 10^-2, 5 μg): 9 PFU
inhibition ([10]; HSV2 10^-2, 10 μg): 30%
virion production ([10]; HSV2 10^-2, 10 μg): 7 PFU
inhibition ([10]; HSV2 10^-2, 25 μg): 40%
virion production ([10]; HSV2 10^-2, 25 μg): 6 PFU
inhibition ([10]; HSV2 10^-2, 50 μg): 70%
virion production ([10]; HSV2 10^-2, 50 μg): 3 PFU
inhibition ([10]; HSV2 10^-2, 100 μg): 70%
virion production ([10]; HSV2 10^-2, 100 μg): 3 PFU

CNc1nnc(-c2ccccc2S(N)(=O)=O)s1 [G-444]
inhibition of virion production ([4]; Table K, Polio 1 10^-6, HEp-2): 64,8%
virion production ([4]; Table K, Polio 1 10^-6, HEp-2): 113 PFU
inhibition of virion production ([4]; Table K, Polio 1 10^-7, HEp-2): 65,7%
virion production ([4]; Table K, Polio 1 10^-7, HEp-2): 87 PFU
inhibition of virion production ([4]; Table K, Polio 1 10^-8, HEp-2): 26,6%
virion production ([4]; Table K, Polio 1 10^-8, HEp-2): 83 PFU

C=CCNc1nnc(-c2ccccc2S(N)(=O)=O)s1 [G-445]
inhibition of virion production ([4]; Table K, Polio 1 10^-6, HEp-2): 73,6%
virion production ([4]; Table K, Polio 1 10^-6, HEp-2): 85 PFU
inhibition of virion production ([4]; Table K, Polio 1 10^-7, HEp-2): 73,2%
virion production ([4]; Table K, Polio 1 10^-7, HEp-2): 68 PFU
inhibition of virion production ([4]; Table K, Polio 1 10^-8, HEp-2): 44,3%
virion production ([4]; Table K, Polio 1 10^-8, HEp-2): 63 PFU
